Experimental data as given in patent US20110195911A1, “SYNTHETIC ANALOGS OF THE JUXTAMEMBRANE DOMAIN OF IGF1R AND USES THEREOF” (THE UNITED STATES OF AMERICA,AS REPRESENTED BY THE …, priority 2008, published 2011).
Where a SMILES comes first, the peptide text is derived from it. The star is where a group is joined. Palmitoyl = CCCCCCCCCCCCCCCC(=O)*

Tested on: MCF-7 breast cancer cells
Experiment: MTT cell toxicity assay in MCF-7 breast cancer cells
Format: cell-based
Conditions: MCF-7 cells, MTT; for GI50 / TGI: final 0.5% FBS, two days with compound; for TGI: concentration of total growth inhibition (cytostatic); for growth inhibition / potency in MCF-7 cells (in words): comparison with related peptides
Description: Cell Toxicity Assays: MCF-7 (breast cancer), T47D (breast cancer), Colo 205 (colon cancer), JM-1 (rat hepatoma), Sk Me1-2 (melanoma), PLC (human hepatoma), and HepG2 (human hepatoma) cells were obtained from American Type Cell Culture Collection. MCF-7 cells were grown in RPMI medium supplemented with 10% Fetal Bovine Serum. The rest of the cell lines were grown in DMEM medium supplemented with 10% Fetal Bovine Serum.
MTT 43-(4,5-Dimethylthiazol-2-yl)-2,5-diphenyltetrazolium) cell assay was performed using MCF-7 breast cancer cells. For the assay, cells were seeded into 96 well plates in medium containing 1% Fetal Bovine Serum and 100 μL of a cell suspension containing 5000 cells per well. Wells containing medium-only, and wells containing untreated cells, served as controls.
Seeded cells were allowed to attach and grow in the wells for 24 hours. A 5 mM stock solution of each peptide was made by dissolving approximately 1 mg of peptide in appropriate amount of DMSO. 2 mL dilutions were used to make 0.2 μM, 1.0 μM, 5.0 μM, and 10.0 μM concentration solutions of the compounds in serum-free medium. 100 μl, of the resulting 2× solutions were added to the corresponding wells to provide a final FBS concentration of 0.5% and 0.1 μM, 0.5 μM, 2.5 μM, and 5.0 μM dilutions of inhibitors. The cells were incubated with test compounds for two days. The control wells were given 100 μL of medium to ensure maximum similarity to the test wells so that all of the wells had 200 μL of medium during the growth period. An individual plate was made for Time Zero, to which the dye was added at the time of addition of compounds.
An alternative potency assay was used to test compounds in MCF-7 (breast cancer), T47D (breast cancer), Colo 205 (colon cancer), JM-1 (rat hepatoma), Sk MeI-2 (melanoma), PLC (human hepatoma), and HepG2 (human hepatoma) cells. Cells were suspended at a concentration of approximately 5000 cells per 100 μL of suspension in a 5% FBS RPMI medium. The cells were seeded into 96-count wells and incubated over night. After one day's incubation, the 5% FBS medium was aspirated and replaced with 100 μL of no serum RPMI medium containing 1 mg Bovine Serum Albumin (BSA) per 1 mL RPMI. Various concentrations of the test compounds were prepared by dilution in no-serum medium containing 1 mg BSA/mL. 75 μL of the test compound solutions were added to the wells, and the cells were allowed to incubate for 15-20 minutes, after which time 25 μL of human recombinant IGF-1 (Peprotech) solution was added to the wells to attain final concentrations of 10 ng IGF-1/mL medium. The control wells were given 175 μL of no-serum medium in addition to 25 μL of IGF-1 solution. An individual plate was made for time zero, in which the medium was also aspirated and replaced with 175 μL of no-serum medium and 25 μL of IGF-1. 15 μL of MTT dye was added and let incubate for 4 hours, after which time a stop stop solubilization solution was added. The stop solution lysed the cells and released the dye reduced by the remaining living cells. Absorbance of the wells at 544 nm was determined by a FLUOstar/POLARstar Galaxy (BMG Lab Technologies GmbH) microplate reader. The activity was calculated from the data using the formula: 100×[(T−T0)/(C−T0)] for T>T0 and 100×[(T−T0)/T0] for T<T0, wherein T0 corresponds to cell density at the time of drug addition, “T” is the optical density of the test well after a 48-h period of exposure to test drug, and “C” is the control optical density. The GI50 measures the growth inhibitory power of the test agent, and is defined as the concentration of test drug where 100×(T−T0)/(C−T0)=50. The TGI is the concentration of test drug where 100×(T−T0)/(C−T0)=0. Thus, the TGI signifies a cytostatic effect.

Structure (SMILES)	GI50 [nM]	TGI [nM]	growth inhibition / potency in MCF-7 cells (in words)	cell killing activity (in words)
CCCCCCCCCCCCCCCC(=O)N[C@@H](CCCNC(=N)N)C(=O)N[C@@H](CCC(N)=O)C(=O)N1CCC[C@H]1C(=O)N[C@@H](CC(=O)O)C(=O)NCC(=O)N1CCC[C@H]1C(=O)N[C@@H](CC(C)C)C(=O)NCC(=O)N1CCC[C@H]1C(=O)N[C@@H](CC(C)C)C(=O)N[C@@H](Cc1ccc(O)cc1)C(N)=O [IR-2, Pal-RQPDGPLGPLY-NH2] (Palmitoyl-RQPDGPLGPLY-NH2)	60 ± 1	400 ± 50	inhibited growth	
CCCCCCCCCCCCCCCC(=O)N[C@@H](Cc1c[nH]cn1)C(=O)N[C@@H](CCCNC(=N)N)C(=O)N[C@@H](CCCCN)C(=O)N[C@@H](CCCNC(=N)N)C(=O)N[C@@H](CC(N)=O)C(=O)N[C@@H](CC(N)=O)C(=O)N[C@@H](CO)C(=O)N[C@@H](CCCNC(=N)N)C(=O)N[C@@H](CC(C)C)C(=O)NCC(=O)N[C@@H](CC(N)=O)C(=O)NCC(N)=O [Peptide 1, Pal-HRKRNNSRLGNG-NH2] (Palmitoyl-HRKRNNSRLGNG-NH2)	1800 ± 50	>5000		
CCCCCCCCCCCCCCCC(=O)N[C@@H](Cc1c[nH]cn1)C(=O)N[C@@H](CCCNC(=N)N)C(=O)N[C@@H](CCCCN)C(=O)N[C@@H](CCCNC(=N)N)C(=O)N[C@@H](CC(N)=O)C(=O)N[C@@H](CC(N)=O)C(=O)N[C@@H](CO)C(=O)N[C@@H](CCCNC(=N)N)C(=O)N[C@@H](CC(C)C)C(=O)NCC(N)=O [Peptide 2, Pal-HRKRNNSRLG-NH2] (Palmitoyl-HRKRNNSRLG-NH2)	1300 ± 50	>5000		
CCCCCCCCCCCCCCCC(=O)N[C@@H](Cc1c[nH]cn1)C(=O)N[C@@H](CCCNC(=N)N)C(=O)N[C@@H](CCCCN)C(=O)N[C@@H](CCCNC(=N)N)C(=O)N[C@@H](CC(N)=O)C(=O)N[C@@H](CC(N)=O)C(=O)N[C@@H](CO)C(=O)N[C@@H](CCCNC(=N)N)C(=O)N[C@@H](CC(C)C)C(=O)NCC(=O)N[C@@H](CC(N)=O)C(=O)NCC(=O)N[C@H](C(=O)N[C@@H](CC(C)C)C(=O)N[C@@H](Cc1ccc(O)cc1)C(=O)N[C@@H](C)C(=O)N[C@@H](CO)C(=O)N[C@H](C(=O)N[C@@H](CC(N)=O)C(N)=O)C(C)C)C(C)C [Peptide 3, Pal-HRKRNNSRLGNGVLYASVN-NH2] (Palmitoyl-HRKRNNSRLGNGVLYASVN-NH2)		1550 ± 100		exhibited cell killing activity
CCCCCCCCCCCCCCCC(=O)N[C@@H](Cc1c[nH]cn1)C(=O)N[C@@H](CCCNC(=N)N)C(=O)N[C@@H](CCCCN)C(=O)N[C@@H](CCCNC(=N)N)C(=O)N[C@@H](CC(N)=O)C(=O)N[C@@H](CC(N)=O)C(=O)N[C@@H](CO)C(=O)N[C@@H](CCCNC(=N)N)C(=O)N[C@@H](CC(C)C)C(=O)NCC(=O)N[C@@H](CC(N)=O)C(=O)NCC(=O)N[C@H](C(=O)N[C@@H](CC(C)C)C(=O)N[C@@H](Cc1ccc(O)cc1)C(=O)N[C@@H](C)C(=O)N[C@@H](CO)C(=O)N[C@H](C(=O)N[C@@H](CC(N)=O)C(=O)N1CCC[C@H]1C(=O)N[C@@H](CCC(=O)O)C(=O)N[C@@H](Cc1ccc(O)cc1)C(=O)N[C@@H](Cc1ccccc1)C(=O)N[C@@H](CO)C(=O)N[C@@H](C)C(=O)N[C@@H](C)C(N)=O)C(C)C)C(C)C [Peptide 4] (Palmitoyl-HRKRNNSRLGNGVLYASVNPEYFSAA-NH2)	1000 ± 50	>5000		
CCCCCCCCCCCCCCCC(=O)N[C@@H](Cc1c[nH]cn1)C(=O)N[C@@H](CCCNC(=N)N)C(=O)N[C@@H](CCCCN)C(=O)N[C@@H](CCCNC(=N)N)C(=O)N[C@@H](CC(N)=O)C(=O)N[C@@H](CC(N)=O)C(=O)N[C@@H](CO)C(=O)N[C@@H](CCCNC(=N)N)C(=O)N[C@@H](CC(C)C)C(=O)NCC(=O)N[C@@H](CC(N)=O)C(=O)NCC(=O)N[C@H](C(=O)N[C@@H](CC(C)C)C(=O)N[C@@H](Cc1ccc(O)cc1)C(=O)N[C@@H](C)C(=O)N[C@@H](CO)C(=O)N[C@H](C(N)=O)C(C)C)C(C)C [Peptide 5, Pal-HRKRNNSRLGNGVLYASV-NH2] (Palmitoyl-HRKRNNSRLGNGVLYASV-NH2)	450 ± 50	1450 ± 300	increased the potency	
